Structures can show the parent of a compound that is named as a salt. A value given as a limit tells only on which side of the number the result lay.

One may read the IC50 as the concentration that gives 50% inhibition.

The target of the first test is T1, Zcchc11 enzyme (Homo sapiens, UniProt Q5TAX3).
T1 construct: made in house; host or cells: HEK293 cells (Zcchc11); E. coli Rosetta II (LIN28A)
T1 sequence (Q5TAX3 212-1420): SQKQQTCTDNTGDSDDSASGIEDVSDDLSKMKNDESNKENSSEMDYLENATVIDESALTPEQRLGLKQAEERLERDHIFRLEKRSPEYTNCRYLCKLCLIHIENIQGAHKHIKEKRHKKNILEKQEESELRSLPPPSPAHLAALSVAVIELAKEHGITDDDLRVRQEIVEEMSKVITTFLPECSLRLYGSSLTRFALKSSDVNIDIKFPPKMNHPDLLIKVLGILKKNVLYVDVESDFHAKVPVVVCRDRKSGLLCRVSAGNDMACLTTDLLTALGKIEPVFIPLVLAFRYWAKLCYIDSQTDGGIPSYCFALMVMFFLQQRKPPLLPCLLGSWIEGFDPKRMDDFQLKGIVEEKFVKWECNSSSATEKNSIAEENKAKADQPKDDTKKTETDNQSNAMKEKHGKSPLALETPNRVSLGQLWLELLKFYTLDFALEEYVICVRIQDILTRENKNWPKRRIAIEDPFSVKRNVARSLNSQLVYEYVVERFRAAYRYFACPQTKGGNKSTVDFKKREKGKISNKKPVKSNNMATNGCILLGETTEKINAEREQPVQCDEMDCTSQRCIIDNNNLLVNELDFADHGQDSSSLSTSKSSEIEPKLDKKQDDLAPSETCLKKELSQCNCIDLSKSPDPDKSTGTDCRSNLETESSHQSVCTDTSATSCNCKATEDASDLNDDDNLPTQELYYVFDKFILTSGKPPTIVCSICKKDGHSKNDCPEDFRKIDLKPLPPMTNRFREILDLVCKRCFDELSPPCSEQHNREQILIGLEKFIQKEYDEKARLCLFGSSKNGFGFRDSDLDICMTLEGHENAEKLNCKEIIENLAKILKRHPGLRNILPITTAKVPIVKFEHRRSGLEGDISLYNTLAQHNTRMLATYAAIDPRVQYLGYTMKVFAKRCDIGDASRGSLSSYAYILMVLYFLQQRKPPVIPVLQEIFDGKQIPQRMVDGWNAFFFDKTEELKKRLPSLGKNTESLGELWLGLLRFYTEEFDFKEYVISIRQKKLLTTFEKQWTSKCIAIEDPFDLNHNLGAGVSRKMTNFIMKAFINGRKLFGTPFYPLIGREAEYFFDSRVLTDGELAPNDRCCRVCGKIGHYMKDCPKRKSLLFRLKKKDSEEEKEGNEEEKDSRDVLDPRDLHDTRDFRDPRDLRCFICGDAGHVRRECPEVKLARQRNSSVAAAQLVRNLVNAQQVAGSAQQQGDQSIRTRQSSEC
In words: TUTase assay (Zcchc11 assay, Lin28a-dependent polyuridylation of pre-let-7). The conditions noted are these: LIN28A 10 nM, Zcchc11 0.2 nM, 5′-fluorescein pre-let-7 miRNA 2 nM, UTP 5 uM, room temperature, 30 minutes pre-incubation; read-out: Potency Lin28a-dep Z11 IC50. In kind it is biochemical. The protocol:
The purpose of the Zcchc11 assay is to determine compound potency against Zcchc11 enzyme through the measurement of IC50. Compound inhibition is measured as a function of polyuridine tails added to RNA substrates in the presence of active TUTase, UTP, and inhibitor. The Zcchc11 assay was done in a black, non-binding, 384 well plate (Corning #3575). All steps were performed at room temperature. For a typical assay, a 29 ul aliquot of assay buffer (50 mM HEPES pH 7.3, 150 mM KCl, 5 mM MgCl2, 10 mM DTT, 0.01% Triton X-100, 40 U/ml RNAsin (Promega)) containing LIN28A protein (final concentration: 10 nM) is added to each well. Next, 1 ul of compound in 100% DMSO is transferred from a compound dilution plate in which the compound is serially diluted. Next, 10 ul of a 5× mix of Zcchc11 and RNA substrate (5′-fluorescein labeled pre-let-7 miRNA (Dharmacon)) is added (final concentrations: 0.2 nM and 2 nM, respectively). The plate is placed on a plate shaker for 30 seconds to produce mixing, then incubated for 30 minutes. Next, 10 ul of a 5× mix of UTP and the quenching probe (3′-rhodamine labeled A20, polyadenosine nucleotide, (IDT)) is added (final concentrations: 5 uM and 4 nM, respectively). The plate is immediately placed in a Biotek Cytation 5 plate reader, and the time-dependent decrease in fluorescein fluorescence resulting from annealing of the A20 probe to polyuridine tails is recorded, using the kinetics mode of the reader. Reaction rates are obtained using linear fits to the early portion of progress curves. IC50 values are calculated using a four parameter fit with 100% enzyme activity determined from the DMSO control and 0% activity from control samples lacking UTP.
The LIN28A protein was expressed in and purified from E. coli, strain Rosetta II (Novagen). The entire coding sequence of the human, wild-type protein was cloned into expression vector pMAL (NEB), down-stream from a maltose-binding protein tag. The linker sequence contained a TEV protease cleavage site. The protein was purified from bacterial extracts using an MBP-Trap column (GE Healthcare Life Sciences), followed by tag cleavage and removal of the tag by ion-exchange chromatography. When necessary, contaminating bacterial RNA was removed using the procedure describe by Faehnle C R. et al. (2017) Multi-domain utilization by TUT4 and TUT7 in control of let-7 biogenesis. Nat Struct Mol Biol, 24:658-665.
The Zcchc11 protein was expressed in and purified from HEK293 cells. A truncated protein comprising residues 212-1420 of the human sequence was cloned into expression vector pTT5 (Viva Biotech) down-stream from a maltose-binding protein tag. The linker sequence contained a TEV protease cleavage site, and a FLAG tag was added to the carboxyl terminus of the protein. The protein was purified from cell extracts using an MBP-Trap column (GE Healthcare Life Sciences), followed by tag cleavage and further enrichment of the full length construct using anti-FLAG affinity media (Sigma Aldrich).
“+” represents an IC50 value that is greater than 50 μM; “++” represents an IC50 value that is greater than 10 μM and equal to or less than 50 μM; “+++” represents an IC50 value that is greater than 1 μM and equal to or less than 10 μM; and “++++” represents an IC50 value that is equal to or less than 1 μM.
On to `CN(C)C(=O)OC[C@H]1CCCN1c1cc2c(cc1Cl)c(=O)c(C(=O)O)cn2-c1ccc(N2CC(N(C)C)C2)nc1` [Example 49, 6-chloro-1-[6-[3-(dimethylamino)azetidin-1-yl]pyridin-3-yl]-7-[(2R)-2-[[(dimethylcarbamoyl)oxy]methyl]pyrrolidin-1-yl]-4-oxoquinoline-3-carboxylic acid], for which the IC50 was not above 1000 nM.
Consider `O=C(O)c1cn(C2CN(CCO)C2)c2cc(N3CCC[C@@H]3COc3ncccc3Cl)c(Cl)cc2c1=O` [Example 34, 6-Chloro-7-[(2R)-2-{[(3-chloropyridin-2-yl)oxy]methyl}pyrrolidin-1-yl]-1-[1-(2-hydroxyethyl)azetidin-3-yl]-4-oxo-1,4-dihydroquinoline-3-carboxylic acid], for which the IC50 was 1000 to 10000 nM.

Staying with this test, now noted: Lin28a-dependent Zcchc11 (Z11) TUTase activity; read-out: Potency Lin28a-dep Z11 IC50.
As to `COc1ccnc(OC[C@H]2C[C@H]3C[C@H]3N2c2cc3c(cc2F)c(=O)c(C(=O)O)cn3-c2ccc(N(C)C)nc2)c1Cl` [Compound 265, 7-((1R,3R,5R)-3-(((3-chloro-4-methoxy-pyridin-2-yl)oxy)methyl)-2-azabicyclo [3.1.0]hexan-2-yl)-1-(6-(dimethyl-amino)pyridin-3-yl)-6-fluoro-4-oxo-1,4-dihydro-quinoline-3-carboxylic acid], the 50% inhibitory concentration (IC50) is not above 1000 nM.
Consider `COc1ccc(Cl)c(OC[C@H]2CC(c3ccc(O)nc3)CN2c2cc3c(cc2Cl)c(=O)c(C(=O)O)cn3-c2ccc(N3CC(N(C)C)C3)nc2)n1` (mixture of isomers) [Compound 225, Rac-6-chloro-7-((2R)-2-(((3-chloro-6-methoxy-pyridin-2-yl)oxy)methyl)-4-(6-hydroxy-pyridin-3-yl)pyrrolidin-1-yl)-1-(6-(3-(dimethyl-amino)azetidin-1-yl)pyridin-3-yl)-4-oxo-1,4-dihydro-quinoline-3-carboxylic acid], for which the IC50 is not above 1000 nM.
Turning to `O=C(O)c1cn(-c2ccc(N3CCC3)nc2)c2cc(N3CCC[C@@H]3COc3ncccc3F)c(Cl)cc2c1=O` [Compound 289, (R)-1-(6-(azetidin-1-yl)pyridin-3-yl)-6-chloro-7-(2-(((3-fluoropyridin-2-yl)oxy)methyl)pyrrolidin-1-yl)-4-oxo-1,4-dihydro-quinoline-3-carboxylic acid], the IC50 is not above 1000 nM.
For the molecule `Cc1cccnc1OC[C@H]1CCCN1c1c(F)cc2c(=O)c(C(=O)O)cn(-c3ccc(O)cc3)c2c1F` [Compound 132, (R)-6,8-difluoro-1-(4-hydroxy-phenyl)-7-(2-(((3-methylpyridin-2-yl)oxy)methyl)pyrrolidin-1-yl)-4-oxo-1,4-dihydro-quinoline-3-carboxylic acid], the IC50 was not above 1000 nM.
Turning to `O=C(O)c1cn(-c2ccc(O)cc2)c2c(F)c(N3CCC[C@@H]3COc3ccccn3)c(F)cc2c1=O` [Compound 134, (R)-6,8-difluoro-1-(4-hydroxy-phenyl)-4-oxo-7-(2-((pyridin-2-yloxy)methyl)pyrrolidin-1-yl)-1,4-dihydro-quinoline-3-carboxylic acid], the IC50 is not above 1000 nM.
On to `CN(C)C1CN(c2ccc(-n3cc(C(=O)O)c(=O)c4cc(Cl)c(N5CC(c6cn(C)cn6)C[C@@H]5COc5ncccc5Cl)cc43)cn2)C1` (stereo partly drawn) [Compound 276, 6-chloro-7-((2R)-2-(((3-chloropyridin-2-yl)oxy)methyl)-4-(1-methyl-1H-imidazol-4-yl)pyrrolidin-1-yl)-1-(6-(3-(dimethyl-amino)azetidin-1-yl)pyridin-3-yl)-4-oxo-1,4-dihydro-quinoline-3-carboxylic acid], for which the IC50 was not above 1000 nM.
`Cc1cccc(F)c1-n1cc(C(=O)O)c(=O)c2cc(F)c(N3CCC[C@@H]3COc3ccccn3)cc21` [Compound 154, (R)-6-fluoro-1-(2-fluoro-6-methylphenyl)-4-oxo-7-(2-((pyridin-2-yloxy)methyl)pyrrolidin-1-yl)-1,4-dihydro-quinoline-3-carboxylic acid]: the half-maximal inhibitory concentration (IC50) was 1000 to 10000 nM.

Still in this test, the particulars now being: Lin28a-dependent Zcchc11 (Z11) TUTase assay; read-out: Potency Lin28a-dep Z11 IC50.
On to `CN(C)C1CN(c2ccc(-n3cc(C(=O)O)c(=O)c4cc(Cl)c(N5CC(c6cccnc6)C[C@@H]5COc5ncccc5Cl)cc43)cn2)C1` (stereo partly drawn) [Example 599, 6-chloro-7-((2R)-2-(((3-chloropyridin-2-yl)oxy)methyl)-4-(pyridin-3-yl)pyrrolidin-1-yl)-1-(6-(3-(dimethylamino)azetidin-1-yl)pyridin-3-yl)-4-oxo-1,4-dihydroquinoline-3-carboxylic acid], for which the IC50 is not above 1000 nM.
As for `O=C(O)c1cn(-c2ccnc(N3CCC3)c2)c2nc(N3CCC[C@@H]3COc3ncccc3Cl)c(Cl)cc2c1=O` [Example 543, (R)-1-(2-(azetidin-1-yl)pyridin-4-yl)-6-chloro-7-(2-(((3-chloropyridin-2-yl)oxy)methyl)pyrrolidin-1-yl)-4-oxo-1,4-dihydro-1,8-naphthyridine-3-carboxylic acid], the IC50 is not above 1000 nM.
Turning to `O=C(O)c1cn(-c2ccc3[nH]c(=O)[nH]c3c2)c2cc(N3CCC[C@@H]3COc3ccccn3)c(F)cc2c1=O` [Example 441, (R)-6-fluoro-4-oxo-1-(2-oxo-2,3-dihydro-1H-benzo[d]imidazol-5-yl)-7-(2-((pyridin-2-yloxy)methyl)pyrrolidin-1-yl)-1,4-dihydroquinoline-3-carboxylic acid], the IC50 was not above 1000 nM.
In the case of `CNCCOc1ccc(-n2cc(C(=O)O)c(=O)c3cc(Cl)c(N4CCC[C@@H]4COc4ncccc4Cl)cc32)cn1` [Example 480, (R)-6-chloro-7-(2-(((3-chloropyridin-2-yl)oxy)methyl)pyrrolidin-1-yl)-1-(6-(2-(methyl-amino)ethoxy)pyridin-3-yl)-4-oxo-1,4-dihydroquinoline-3-carboxylic acid hydrochloride], the IC50 was not above 1000 nM.
